Measurements from patent publication US20210386985A1, “BIODEGRADABLE MICRONEEDLES FOR TRANSDERMAL THERAPEUTIC AGENT DELIVERY” (THE REGENTS OF THE UNIVERSITY OF CALIFORNIA, priority 2018, published 2021).

Tested on: melanoma cell line A375
Assay: In vitro anticancer efficacy of the released DOX (MTT and Live/Dead assay)
Assay type: cell-based, human
Conditions: A375 cells, microneedles incubated 1 h
Experimental: A human melanoma cell line A375 was used as the model to investigate the anticancer efficiency of DOX released from the microneedles 14. After incubating microneedles 14 containing 10 μg of DOX with the plated cells for 1 h, the viability of A375 cells was examined using an MTT assay after 24 h. […] The DOX-induced cell death was further investigated by a Live/Dead assay, where live cells metabolized calcein AM into the green fluorescent calcein, and dead cells with compromised membrane integrity were stained by the red fluorescent dye EthD-1. […] The possible reason was that microneedles 14 with more crosslinking time would release less DOX at the same releasing time (1 h).
In vitro anticancer efficacy of the released DOX: In vitro cytotoxicity of the released DOX was evaluated using the melanoma cell line A375 as the model. Specifically, A375 cells were plated in 24-well plates (1×10^6 per well) and incubated for 24 h. Microneedles 14 with different crosslinking degrees were added and incubated for 1 h. After that, the microneedles 14 were removed from the wells, and A375 cells were incubated for another 24 h. The effects of DOX on the metabolic activity of A375 cells in vitro were tested with a rapid colorimetric MTT assay. The absorbance of the wells was read at 570 nm with 630 nm as the reference. […]

Structure (SMILES): COc1cccc2c1C(=O)c1c(O)c3c(c(O)c1C2=O)C[C@@](O)(C(=O)CO)C[C@@H]3O[C@H]1C[C@H](N)[C@H](O)[C@H](C)O1 [DOX, doxorubicin]
- cell death (Live/Dead assay): cell death was observed
